These results are taken from patent US20170000702A1, “PERSONAL CARE COMPOSITIONS COMPRISING A SENSATE” (The Gillette Park, priority 2015, published 2017).

For test [1], the target named is T1, human TRPV1 (Homo sapiens, UniProt Q8NER1).
T1 construct: expressed in transfected cells; host or cells: HEK-293
Briefly: Pre-Incubation Test Method, TRPV1 (FLIPR intracellular calcium, capsaicin activator). Type of test: cell-based. How it is done: (§1) The Pre-Incubation Test and Direct Addition Test Methods, as defined herein, can be conducted on either TRPV1 or TRPA1 receptors.
(§2) Pre-Incubation Test Method: First, the intracellular calcium ion (Ca^+2) levels in TRPV1 and TRPA1 receptors is measured. […] Cells are detached with addition of 10 ml of PBS (phosphate buffered saline) by hand shaking gently. Cells are transferred to a 50 ml tube and centrifuged at 850 rpm for 3 minutes to remove PBS. After centrifugation, a pellet of cells is formed in the bottom of the tube separating them from the supernatant solution. […] Fluo-4 is a fluorescent dye used for quantifying cellular Ca^2+ concentrations in the 100 nM to 1 microM range. At the end of the 30 minutes, 45 ml of assay buffer [1× HBSS (Hank's Balanced Salt Solution), 20 mM HEPES (4-(2-Hydroxyethyl)-1-piperazineethanesulfonic acid)] is added to wash cells and the resulting combination is then centrifuged at 850 rpm for 3 minutes to remove excess buffer and Fluo-4 AM calcium indicator.
(§3) The pellet cells are re-suspended in 10 ml assay buffer and 90 μl aliquots (˜50,000 cells) per well delivered to a 96-well assay plate containing 10 μl of test compounds (1 mM in assay buffer, final concentration 100 μM) or buffer control and incubated at room temperature for 30 minutes. […] The FLIPR assay is an accepted method for detecting changes in intracellular calcium concentration. Then 20 μl of the activators [1.8 μM Capsaicin (final concentration 300 nM) for TRPV1 or 300 μM AITC (final concentration 50 μM) for TRPA1 is added by FLIPR automatically and fluorescence recorded immediately.

Test [2] deals with T1, human TRPV1. Kind of test: Direct Addition Test Method, TRPV1 (FLIPR intracellular calcium). Format: cell-based. The protocol:
as §1, §2, §3
(§4) Direct Addition Test Method (for determining the direct effect of test compounds on TRPV1 and TRPA1): All procedures are same as the pre-incubation test except 10 μl assay buffer instead of 10 μl test compounds in the 96-well assay plates. The fluorescence is measured immediately after addition of 20 μl of 600 μM each compound (final concentration 100 μM). The 20 μl of activator (capsaicin or AITC) is as the positive control. The percentage of up-regulation or down-regulation is calculated based on the fluorescence measurement.

The target of test [3] is T2, human TRPA1 (Homo sapiens, UniProt O75762).
T2 construct: expressed in transfected cells; host or cells: HEK-293
Briefly: Direct Addition Test Method, TRPA1 (FLIPR intracellular calcium). Format: cell-based. The protocol:
as §1, §2, §3, §4

The target in test [4] is T2, human TRPA1. Briefly: Pre-Incubation Test Method, TRPA1 (FLIPR intracellular calcium, AITC activator). Format: cell-based. The protocol:
as §1, §2, §3

A short description of test [5]: In use irritation Test 2 (single variable shave test with panelists). Type of test: in vivo. The note with it: control 5.60. The protocol: • In use irritation Test 2: Five samples are produced with the same blank testing formulation as in Test 1, above. Samples are tested with panelists in a single variable shave test with only the addition and level of sensate being varied.

Test [6] in a line: In use irritation Test 1 (single variable shave test with panelists). Type of test: in vivo. The conditions noted are these: control 6.3. How it is done:
10. In Use Irritation Data: • In use irritation Test 1: Five samples are produced with the following formulation. Samples are tested with panelists in a single variable shave test with only the addition and level of sensate being varied. Respondents provide average irritation ratings summarized below. • Testing formula: […]

The mark [7] stands for this setting: TRPV1, HEK-293 cells, test compound final concentration 100 μM, 30 minutes pre-incubation, activator Capsaicin 300 nM.
Setting [8] is: TRPV1, HEK-293 cells, compound final concentration 100 μM, no pre-incubation, capsaicin as positive control.
Where [9] appears, read: TRPA1, HEK-293 cells, compound final concentration 100 μM, no pre-incubation, AITC as positive control.
The mark [10] stands for this setting: TRPA1, HEK-293 cells, test compound final concentration 100 μM, 30 minutes pre-incubation, activator AITC 50 μM.
Setting [11] is: sensate added to control formula at 0.2%.

Read-outs that look alike come from different tables or passages of the source.

T1 sequence (Q8NER1 whole entry): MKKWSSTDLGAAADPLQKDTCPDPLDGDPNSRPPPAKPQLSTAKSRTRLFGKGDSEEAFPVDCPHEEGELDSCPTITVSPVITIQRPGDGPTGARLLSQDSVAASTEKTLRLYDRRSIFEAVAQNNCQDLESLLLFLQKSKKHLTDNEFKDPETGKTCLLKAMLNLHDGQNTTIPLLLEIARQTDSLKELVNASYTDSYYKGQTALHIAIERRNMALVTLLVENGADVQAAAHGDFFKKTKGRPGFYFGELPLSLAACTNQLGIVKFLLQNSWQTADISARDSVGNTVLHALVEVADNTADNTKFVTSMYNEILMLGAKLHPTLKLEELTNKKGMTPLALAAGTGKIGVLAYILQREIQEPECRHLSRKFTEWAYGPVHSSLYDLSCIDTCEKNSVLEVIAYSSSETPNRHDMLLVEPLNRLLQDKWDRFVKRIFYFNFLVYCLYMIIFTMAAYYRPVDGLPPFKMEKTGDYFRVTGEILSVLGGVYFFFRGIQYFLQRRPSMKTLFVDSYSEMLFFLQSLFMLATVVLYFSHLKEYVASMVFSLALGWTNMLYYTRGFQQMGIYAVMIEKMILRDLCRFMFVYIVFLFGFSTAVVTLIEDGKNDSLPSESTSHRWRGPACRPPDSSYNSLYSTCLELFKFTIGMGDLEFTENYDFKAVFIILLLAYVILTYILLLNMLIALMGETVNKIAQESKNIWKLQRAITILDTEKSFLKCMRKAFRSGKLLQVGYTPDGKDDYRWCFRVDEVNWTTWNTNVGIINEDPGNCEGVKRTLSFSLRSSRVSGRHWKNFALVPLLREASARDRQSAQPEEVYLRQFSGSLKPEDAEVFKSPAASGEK
T2 sequence (O75762 whole entry): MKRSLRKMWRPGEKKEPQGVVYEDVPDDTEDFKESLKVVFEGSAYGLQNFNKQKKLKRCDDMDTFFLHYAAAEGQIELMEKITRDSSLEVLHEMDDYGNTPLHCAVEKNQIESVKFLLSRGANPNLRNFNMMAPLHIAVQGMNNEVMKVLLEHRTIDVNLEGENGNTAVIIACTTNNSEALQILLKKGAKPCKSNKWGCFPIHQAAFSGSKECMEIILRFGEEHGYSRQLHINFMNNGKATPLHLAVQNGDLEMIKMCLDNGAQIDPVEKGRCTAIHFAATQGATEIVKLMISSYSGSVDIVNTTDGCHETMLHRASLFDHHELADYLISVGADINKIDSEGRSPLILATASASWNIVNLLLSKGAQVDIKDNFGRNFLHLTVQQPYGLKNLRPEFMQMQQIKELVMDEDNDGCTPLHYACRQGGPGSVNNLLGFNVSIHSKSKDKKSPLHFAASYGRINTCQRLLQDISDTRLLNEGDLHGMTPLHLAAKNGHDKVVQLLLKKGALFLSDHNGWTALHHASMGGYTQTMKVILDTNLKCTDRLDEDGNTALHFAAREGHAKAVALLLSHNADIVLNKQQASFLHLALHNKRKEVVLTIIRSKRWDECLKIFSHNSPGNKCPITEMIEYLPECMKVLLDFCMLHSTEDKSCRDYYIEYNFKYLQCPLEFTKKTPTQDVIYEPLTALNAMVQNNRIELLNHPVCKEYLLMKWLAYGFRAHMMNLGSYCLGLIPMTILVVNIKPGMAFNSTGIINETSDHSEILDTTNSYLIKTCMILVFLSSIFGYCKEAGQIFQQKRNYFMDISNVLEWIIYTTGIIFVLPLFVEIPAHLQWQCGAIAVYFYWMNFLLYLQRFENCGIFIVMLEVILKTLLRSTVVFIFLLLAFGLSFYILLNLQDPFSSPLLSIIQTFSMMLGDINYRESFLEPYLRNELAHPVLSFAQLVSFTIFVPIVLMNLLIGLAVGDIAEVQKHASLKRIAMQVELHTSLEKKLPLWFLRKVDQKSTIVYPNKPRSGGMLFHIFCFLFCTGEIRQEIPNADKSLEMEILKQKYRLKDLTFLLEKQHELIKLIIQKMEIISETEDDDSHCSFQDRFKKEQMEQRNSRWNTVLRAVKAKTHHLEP

On to `C=C1CCC(C)C(C)(C)C1/C=C/C(C)=O` (stereo not shown), for which the “Pre-incubation % Regulation” value at human TRPV1 [1] (setting [7]) came to 22.16%; at human TRPA1 [4] (setting [10]), 23.55%. For the same compound, the “Direct Addition % Regulation” value on human TRPV1 [2] (setting [8]) was 5.24%; on human TRPA1 [3] (setting [9]), 4.96%. In addition, the “Avg Irritation Score” value in test [5] (sensate at 0.1% in control formulation) stood at 5.40.
In the case of `Cc1cc(O)ccc1Cl` [4-chloro-3-methylphenol], the “Pre-incubation % Regulation” value at human TRPV1 [1] (setting [7]) is on record as 47.49%; at human TRPA1 [4] (setting [10]) it was −0.43%. Further, the “Direct Addition % Regulation” value is recorded as 292.92% on human TRPV1 [2] (setting [8]) and 319.54% at human TRPA1 [3] (setting [9]). For the same compound, in test [6] (setting [11]), the “Avg Irritation Score” value was 4.3.
As to `CC(=O)CCC=C(C)C` [6-Methyl-5-hepten-2-one, 6-methyl-5-hepten-2-one], the “Avg Irritation Score” value in test [6] (sensate added to control formula at 0.15%) came to 6.0.
Regarding `OCc1ccccc1` [Benzyl Alcohol, benzyl alcohol], the figures for the “Pre-incubation % Regulation” value on human TRPV1 [1] (setting [7]) and on human TRPA1 [4] (setting [10]) were 51.18% and 14.61%, respectively. Besides, the “Direct Addition % Regulation” value is reported as −2.09% at human TRPV1 [2] (setting [8]) and 21.39% on human TRPA1 [3] (setting [9]). The “Avg Irritation Score” value in test [6] (sensate added to control formula at 1%) was 4.8.
`Cc1cc(O)cc(C)c1Cl` [Chloroxylenol, chloroxylenol]: the “Pre-incubation % Regulation” value at human TRPV1 [1] (setting [7]) is reported as 37.52%; on human TRPA1 [4] (setting [10]), −0.08%. Moreover, the “Direct Addition % Regulation” value at human TRPV1 [2] (setting [8]) is 326.69%; at human TRPA1 [3] (setting [9]), 381.06%. Further, the “Avg Irritation Score” value in test [6] (setting [11]) was determined as 5.2.
Consider `CC(C)C(=O)OCCOc1ccccc1` [Phenoxyethyl Isobutyrate, phenoxyethyl isobutyrate], for which the “Pre-incubation % Regulation” value on human TRPV1 [1] (setting [7]) is reported as 41.34%; at human TRPA1 [4] (setting [10]), 36.8%. For the same compound, the “Direct Addition % Regulation” value on human TRPV1 [2] (setting [8]) was −6.84%; on human TRPA1 [3] (setting [9]), −7.84%. For the same compound, the “Avg Irritation Score” value in test [5] (sensate at 0.13% in control formulation) was determined as 4.45.
On to `CC(=O)[O][Zn][O]C(C)=O` [Zinc Acetate, zinc acetate], for which the “Pre-incubation % Regulation” value at human TRPV1 [1] is 35.2%; on human TRPA1 [4], 21.67%. Also, the “Direct Addition % Regulation” value on human TRPV1 [2] is reported as 0.88%; at human TRPA1 [3], −0.66%. Moreover, the “Avg Irritation Score” value in test [5] (sensate at 0.03% in control formulation) came out at 4.55.
